Data: patent publication US8937183B2, “Detection of hydrogen peroxide” (Promega Corporation, priority 2011, dated 2015)

How the values were obtained:
[1] = Light generation from compounds following incubation with hydrogen peroxide in different pH solutions (D-cysteine conversion, LDR); assay type: biochemical; details: for Signal to Background Ratios: signal with peroxide to background no peroxide
Description: In this experiment, various compounds were tested for their ability to detect hydrogen peroxide in different pH solutions. Several compounds are shown to give much better signal strength and signal to background ratios than PBI 3048 (Example 23). 4 mg/ml solutions of compounds PBI 4480, 4481, 4452, 4470, 4472, 3048 (FIGS. 1 and 2) were made by dissolving them in DMSO (Fluka 41641). 30 μl of the compound solutions was diluted to 1.5 ml with Nanopure water, and 50 μl aliquots added as follows into a white, 96-well luminometer plate: PBI 4481, row A1-12; PBI 4480, row B1-12; PBI 4452, row C1-12; PBI 3048, row D1-12; PBI 4472, row E1-12 and PBI 4470, row F1-12.
25 μl of 200 mM TRIS buffer, pH 7.6 was added to wells A1-F4, 25 μl of 200 mM TRIS buffer, pH 8.8 was added to wells A5-F8, and 25 μl of 200 mM Tris buffer, pH 10.4 was added […].
30% hydrogen peroxide (Sigma H 1009-5 ml) was diluted to 40 μM in Nanopure water, and 25 μl added to columns 3, 4, 7, 8, 11 and 12 of the plate. 25 μl water was added to columns 1, 2, 5, 6, 9, and 10 of the plate, and the plate incubated at room temperature for 60 minutes.
A conversion solution was made by mixing 100 μl of 100 mM D-cysteine, 1 ml Tris Buffer pH 8.8 and 8.9 ml nanopure water. After mixing, 80 μl of the solution was added to wells A1-F12 of a new luminometer plate.
After incubation, 20 μl of sample from wells A1-F12 of the first plate was transferred to the same well in the new luminometer plate. The new plate was incubated at room temperature for 5 minutes, 100 μl of LDR (Example 23) was added to wells A1-F12, and bioluminescence detected on a Glo Max® luminometer (Promega).
The RLUs for the duplicate wells were averaged. The averages for the wells containing hydrogen peroxide were compared to the wells without hydrogen peroxide at the same pH (Table 2). BZT is used to designate benzothiazole derivatives of the compounds.
The Signal to Background (S/B) ratio is used to compare assay reagents with very difference signal strengths. An assay with a higher S/B ratio is often considered a better assay than one with a smaller S/B ratio (with all other factors being relatively equal).

[2] = Generation of bioluminescence from luciferin borates upon treatment with hydrogen peroxide (luciferase light reaction); assay type: biochemical; details: for light signal increase upon addition of hydrogen peroxide (in words): all pH values 6.87 to 9.18
Description: In this example, luciferin borates were incubated with hydrogen peroxide, and luciferin generation was measured using a light reaction catalyzed by luciferase. An increase in light output (bioluminescence) as a result of treatment of the luciferin borates with hydrogen peroxide indicates generation of luciferin as a result of the reaction with hydrogen peroxide.
1 M phosphate solutions (either 6.8 g of KH2PO4 (Fisher) or 11.4 g of K2HPO4 (Sigma) were dissolved in Nanopure water to 1 M) were diluted 1:5 with Nanopure water to produce 200 mM phosphate solutions. 200 mM phosphate buffers at pH 6.87, 7.41, 7.73, 8.04, and 9.18 were prepared. 4 mg/ml solutions of PBI 3048, 4013, 4424 and 4425 (FIG. 1) in DMSO (Fluka 41641) were made from solid powder.
Into two 96-well white, solid bottom luminometer plates (Promega Z3291) (labeled “A” and “B”), 50 μl of 200 mM phosphate buffer pH 6.87 was added to wells A1-H2; 50 μl of 200 mM phosphate pH 7.41 was added to wells A3-H4; 50 μl of 200 mM phosphate buffer pH 7.73 was added to wells A5-H6; 50 μl of 200 mM phosphate buffer pH 8.04 was added to wells A7-H8; and 50 μl of 200 mM phosphate buffer pH 9.18 was added to wells A9-H10.
50 μl of 4 mg/ml PBI 4013 in DMSO was diluted to 1.25 ml with Nanopure water, and 25 μl added to wells A1-D10 of plate A. 50 μl of 4 mg/ml PBI 4424 was diluted to 1.25 ml with Nanopure water, and 25 μl added to E1-H10 of plate A. 50 μl of 4 mg/ml PBI 3048 was diluted to 1.25 ml with Nanopure water, and 25 μl added to A1-D10 of plate B. 50 μl of 4 mg/ml PBI 4425 was diluted to 1.25 ml with Nanopure water, and 25 μl added to E1-H10 of plate B. 25 μl of Nanopure water was added to rows A and E of both plates. 17 μl of Nanopure water was added to rows B and F of both plates; and 8 μl of Nanopure water was added to rows C and G of both plates
A hydrogen peroxide solution (30% hydrogen peroxide, Sigma H1009-5 ml) was diluted to 60 μM hydrogen peroxide with Nanopure water, and 25 μl of the 60 μM hydrogen peroxide was added to rows D and H of both plates; 17 μl of […] hydrogen peroxide was added to rows C and G of both plates; and 8 μl of […] hydrogen peroxide was added to rows B and F of both plates. Both plates A and B were then gently mixed for 70 minutes.
A bottle of Reconstitution Buffer with Esterase (Promega V144B) was thawed and used to reconstitute a Luciferin Detection Reagent (Promega V859B) to create a reconstituted Luciferin Detection Reagent (“LDR”). 15 ml of 1 M HEPES buffer, pH 7.5 was mixed with 25 ml of the LDR, and 80 μl added to wells A1-H10 of two new luminometer plates (“R1” and “R2”).
Following incubation, 20 μl of the contents of wells A1-H10 of plate A was transferred to the same wells in plate R1, and 20 μl of A1-H10 of plate B was transferred to the same wells in plate R2. Plate R1 and R2 were then incubated at room temperature for 15 minutes, and bioluminescence was measured with a GloMax® luminometer (Promega Corp).
Bioluminescence from duplicate wells was averaged, and the average relative light units (RLUs) from samples containing peroxide were compared to those from the samples not containing peroxide incubated at the same pH (Table 1).

[3] = pH 7.6 TRIS buffer, No H2O2, 60 minutes
[4] = pH 7.6 TRIS buffer, With H2O2 (25 μl of 40 μM added), 60 minutes
[5] = pH 8.8 TRIS buffer, No H2O2, 60 minutes
[6] = pH 8.8 TRIS buffer, With H2O2 (25 μl of 40 μM added), 60 minutes
[7] = pH 10.4 Tris buffer, No H2O2, 60 minutes
[8] = pH 10.4 Tris buffer, With H2O2 (25 μl of 40 μM added), 60 minutes
[9] = H2O2 0 μM, phosphate buffer pH 6.87, 70 minutes
[10] = H2O2 0 μM, phosphate buffer pH 7.41, 70 minutes
[11] = H2O2 0 μM, phosphate buffer pH 7.73, 70 minutes
[12] = H2O2 0 μM, phosphate buffer pH 8.04, 70 minutes
[13] = H2O2 0 μM, phosphate buffer pH 9.18, 70 minutes
[14] = H2O2 5 μM, phosphate buffer pH 6.87, 70 minutes
[15] = H2O2 5 μM, phosphate buffer pH 7.41, 70 minutes
[16] = H2O2 5 μM, phosphate buffer pH 7.73, 70 minutes
[17] = H2O2 5 μM, phosphate buffer pH 8.04, 70 minutes
[18] = H2O2 5 μM, phosphate buffer pH 9.18, 70 minutes
[19] = H2O2 10 μM, phosphate buffer pH 6.87, 70 minutes
[20] = H2O2 10 μM, phosphate buffer pH 7.41, 70 minutes
[21] = H2O2 10 μM, phosphate buffer pH 7.73, 70 minutes
[22] = H2O2 10 μM, phosphate buffer pH 8.04, 70 minutes
[23] = H2O2 10 μM, phosphate buffer pH 9.18, 70 minutes
[24] = H2O2 15 μM, phosphate buffer pH 6.87, 70 minutes
[25] = H2O2 15 μM, phosphate buffer pH 7.41, 70 minutes
[26] = H2O2 15 μM, phosphate buffer pH 7.73, 70 minutes
[27] = H2O2 15 μM, phosphate buffer pH 8.04, 70 minutes
[28] = H2O2 15 μM, phosphate buffer pH 9.18, 70 minutes

Row | Structure (SMILES) | average relative light units (bioluminescence) [2, 9] | average relative light units (bioluminescence) [2, 10] | average relative light units (bioluminescence) [2, 11] | average relative light units (bioluminescence) [2, 12] | average relative light units (bioluminescence) [2, 13] | average relative light units (bioluminescence) [2, 14] | average relative light units (bioluminescence) [2, 15] | average relative light units (bioluminescence) [2, 16] | average relative light units (bioluminescence) [2, 17] | average relative light units (bioluminescence) [2, 18] | average relative light units (bioluminescence) [2, 19] | average relative light units (bioluminescence) [2, 20] | average relative light units (bioluminescence) [2, 21] | average relative light units (bioluminescence) [2, 22] | average relative light units (bioluminescence) [2, 23] | average relative light units (bioluminescence) [2, 24] | average relative light units (bioluminescence) [2, 25] | average relative light units (bioluminescence) [2, 26] | average relative light units (bioluminescence) [2, 27] | average relative light units (bioluminescence) [2, 28] | other results
1 | N#Cc1nc2ccc(OCc3ccc(B(O)O)cc3)cc2s1 [PBI 4452, (4-(((2-cyanobenzo[d]thiazol-6-yl)oxy)methyl)phenyl)boronic acid] |  |  |  |  |  |  |  |  |  |  |  |  |  |  |  |  |  |  |  |  | Signal to Background Ratios ([1]; pH 7.6): 1.9; averaged RLUs (bioluminescence) [1, 3]: 607,036 RLU; averaged RLUs (bioluminescence) [1, 4]: 1,182,338 RLU; Signal to Background Ratios ([1]; pH 8.8): 4.4; averaged RLUs (bioluminescence) [1, 5]: 632,327 RLU; averaged RLUs (bioluminescence) [1, 6]: 2,790,924 RLU; Signal to Background Ratios ([1]; pH 10.4): 15.8; averaged RLUs (bioluminescence) [1, 7]: 921,935 RLU; averaged RLUs (bioluminescence) [1, 8]: 14,577,312 RLU
2 | O=C(O)C1CSC(c2nc3ccc(OCc4ccc(B(O)O)c5ccccc45)cc3s2)=N1 (stereo not drawn) [PBI 4013] | 421,702 RLU | 469,602 RLU | 573,023 RLU | 585,008 RLU | 700,831 RLU | 580,978 RLU | 760,900 RLU | 1,089,717 RLU | 1,534,619 RLU | 3,678,815 RLU | 680,475 RLU | 1,020,315 RLU | 1,634,356 RLU | 2,485,677 RLU | 5,433,577 RLU | 793,789 RLU | 1,282,281 RLU | 2,209,227 RLU | 3,373,538 RLU | 7,062,631 RLU | light signal increase upon addition of hydrogen peroxide (in words) [2]: increased strongly
3 | N#Cc1nc2ccc(OCc3ccc(B(O)O)c(Cl)c3)cc2s1 [PBI 4470, (2-chloro-4-(((2-cyanobenzo[d]thiazol-6-yl)oxy)methyl)phenyl)boronic acid] |  |  |  |  |  |  |  |  |  |  |  |  |  |  |  |  |  |  |  |  | Signal to Background Ratios ([1]; pH 7.6): 1.4; averaged RLUs (bioluminescence) [1, 3]: 492,941 RLU; averaged RLUs (bioluminescence) [1, 4]: 701,300 RLU; Signal to Background Ratios ([1]; pH 8.8): 3.3; averaged RLUs (bioluminescence) [1, 5]: 468,729 RLU; averaged RLUs (bioluminescence) [1, 6]: 1,525,058 RLU; Signal to Background Ratios ([1]; pH 10.4): 16.3; averaged RLUs (bioluminescence) [1, 7]: 819,416 RLU; averaged RLUs (bioluminescence) [1, 8]: 13,391,102 RLU
4 | O=C(O)C1CSC(c2nc3ccc(OCc4c(B(O)O)ccc5ccccc45)cc3s2)=N1 (stereo not drawn) [PBI 4424] | 17,522 RLU | 16,181 RLU | 17,087 RLU | 18,602 RLU | 17,794 RLU | 18,952 RLU | 17,583 RLU | 18,681 RLU | 20,935 RLU | 22,309 RLU | 19,891 RLU | 17,508 RLU | 19,298 RLU | 20,554 RLU | 20,333 RLU | 20,263 RLU | 19,332 RLU | 25,729 RLU | 21,486 RLU | 20,453 RLU | light signal increase upon addition of hydrogen peroxide (in words) [2]: much smaller
5 | CC(Oc1ccc2nc(C3=NC(C(=O)O)CS3)sc2c1)c1ccc(B(O)O)cc1 (stereo not drawn) [PBI 4425] | 10,464 RLU | 10,266 RLU | 9,302 RLU | 10,312 RLU | 9,428 RLU | 13,296 RLU | 14,549 RLU | 13,739 RLU | 15,130 RLU | 19,728 RLU | 14,491 RLU | 14,768 RLU | 17,086 RLU | 19,258 RLU | 26,859 RLU | 14,105 RLU | 14,725 RLU | 15,789 RLU | 18,905 RLU | 24,236 RLU | light signal increase upon addition of hydrogen peroxide (in words) [2]: much smaller
